{"source": "ChEMBL document CHEMBL3774310", "about": "“Discovery of antitumor anthra[2,3-b]furan-3-carboxamides: Optimization of synthesis and evaluation of antitumor properties” (Eur J Med Chem, 2016)", "key": {"[1]": {"molecular_target": "Fibroblast growth factor receptor 1 (Homo sapiens, UniProt P11362, V561M)", "sequence (P11362 22-822 V561M limits assumed)": "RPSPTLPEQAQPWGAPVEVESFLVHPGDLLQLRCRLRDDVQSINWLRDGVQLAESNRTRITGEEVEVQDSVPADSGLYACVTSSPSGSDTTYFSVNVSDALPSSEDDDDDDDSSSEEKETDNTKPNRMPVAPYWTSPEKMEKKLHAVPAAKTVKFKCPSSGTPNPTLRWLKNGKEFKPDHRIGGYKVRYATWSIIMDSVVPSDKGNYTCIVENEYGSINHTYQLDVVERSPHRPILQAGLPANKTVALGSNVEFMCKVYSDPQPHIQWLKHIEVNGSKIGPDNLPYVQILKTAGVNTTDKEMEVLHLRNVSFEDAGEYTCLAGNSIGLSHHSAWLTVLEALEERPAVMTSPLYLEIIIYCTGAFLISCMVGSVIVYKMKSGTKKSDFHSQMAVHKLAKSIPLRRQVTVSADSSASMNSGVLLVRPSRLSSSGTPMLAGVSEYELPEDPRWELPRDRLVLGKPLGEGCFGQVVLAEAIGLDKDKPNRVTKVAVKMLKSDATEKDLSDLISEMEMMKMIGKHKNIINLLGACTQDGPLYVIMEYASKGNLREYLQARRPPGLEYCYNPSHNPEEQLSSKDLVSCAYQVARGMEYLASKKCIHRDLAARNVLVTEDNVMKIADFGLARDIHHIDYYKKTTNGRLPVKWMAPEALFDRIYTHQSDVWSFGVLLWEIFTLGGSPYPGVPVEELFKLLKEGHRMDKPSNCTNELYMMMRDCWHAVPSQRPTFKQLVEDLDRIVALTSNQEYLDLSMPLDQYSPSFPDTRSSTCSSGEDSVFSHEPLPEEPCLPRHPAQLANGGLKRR", "experiment": "Inhibition of human FGF-R1 V561M mutant expressed in sf9 cells by flashplate based radiometric 33pan-quinase assay"}, "Aurora kinase C": {"molecular_target": "Aurora kinase C (Homo sapiens, UniProt Q9UQB9)", "sequence (Q9UQB9 whole entry)": "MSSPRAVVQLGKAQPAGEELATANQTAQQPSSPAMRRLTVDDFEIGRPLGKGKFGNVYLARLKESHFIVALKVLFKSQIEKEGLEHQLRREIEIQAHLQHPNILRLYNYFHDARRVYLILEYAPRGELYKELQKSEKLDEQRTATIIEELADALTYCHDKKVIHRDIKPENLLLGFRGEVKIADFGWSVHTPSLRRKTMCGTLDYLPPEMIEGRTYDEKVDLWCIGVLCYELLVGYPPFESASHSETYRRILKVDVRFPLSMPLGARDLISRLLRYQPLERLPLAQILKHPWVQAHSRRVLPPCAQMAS", "experiment": "Inhibition of full length human N-terminal GST-HIS6-tagged Aurora C expressed in sf9 cells by flashplate based radiometric 33pan-quinase assay"}, "P388 [2]": {"test_system": "P388", "experiment": "Antitumor activity against mouse P388 cells transplanted in DBA2/BDF1 mouse assessed as mean life span at 30 mg/kg, ip dosed daily for 5 days (reference value: 9.6 to 9.7 day)", "format": "functional"}, "[3]": {"experiment": "Cell cycle arrest in p53 knockout human HCT116 cells assessed as accumulation in sub G1 phase at 1 uM after 24 to 48 hrs relative to control", "format": "functional, cell-based", "settings": "HCT-116"}, "[4]": {"molecular_target": "Mitogen-activated protein kinase kinase kinase 7 (Homo sapiens, UniProt O43318)", "sequence (O43318 whole entry)": "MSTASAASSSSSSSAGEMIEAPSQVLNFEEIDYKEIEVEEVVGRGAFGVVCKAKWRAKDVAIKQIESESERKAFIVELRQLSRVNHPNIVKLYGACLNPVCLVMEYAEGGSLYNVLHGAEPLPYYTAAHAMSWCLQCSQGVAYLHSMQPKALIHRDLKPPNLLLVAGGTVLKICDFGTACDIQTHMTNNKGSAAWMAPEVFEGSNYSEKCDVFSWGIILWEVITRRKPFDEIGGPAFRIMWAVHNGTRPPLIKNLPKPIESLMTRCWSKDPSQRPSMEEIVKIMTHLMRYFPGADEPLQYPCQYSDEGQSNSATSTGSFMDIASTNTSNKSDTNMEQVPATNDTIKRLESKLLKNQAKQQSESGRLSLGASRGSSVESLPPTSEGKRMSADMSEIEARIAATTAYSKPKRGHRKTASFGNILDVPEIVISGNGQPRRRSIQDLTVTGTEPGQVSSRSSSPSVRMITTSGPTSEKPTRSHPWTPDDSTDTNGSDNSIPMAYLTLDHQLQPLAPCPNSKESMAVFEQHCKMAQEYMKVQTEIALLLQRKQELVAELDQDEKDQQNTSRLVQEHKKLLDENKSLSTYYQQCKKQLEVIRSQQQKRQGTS", "experiment": "Inhibition of human MAP3K7 by flashplate based radiometric 33pan-quinase assay"}, "[5]": {"molecular_target": "Serine/threonine-protein kinase pim-1 (Homo sapiens, UniProt P11309)", "sequence (P11309 whole entry)": "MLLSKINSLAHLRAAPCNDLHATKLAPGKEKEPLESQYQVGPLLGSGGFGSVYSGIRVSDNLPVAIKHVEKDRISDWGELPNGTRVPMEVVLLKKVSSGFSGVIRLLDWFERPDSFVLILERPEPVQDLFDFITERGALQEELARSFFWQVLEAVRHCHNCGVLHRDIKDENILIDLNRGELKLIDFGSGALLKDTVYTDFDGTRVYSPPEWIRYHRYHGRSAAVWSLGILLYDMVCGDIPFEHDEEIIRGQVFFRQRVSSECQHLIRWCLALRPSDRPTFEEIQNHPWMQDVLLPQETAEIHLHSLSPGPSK", "experiment": "Inhibition of full length human N-terminal GST-HIS6-tagged PIM1 expressed in sf9 cells by flashplate based radiometric 33pan-quinase assay"}, "[6]": {"molecular_target": "Dual serine/threonine and tyrosine protein kinase (Homo sapiens, UniProt Q6XUX3)", "experiment": "Inhibition of human RIPK5 by flashplate based radiometric 33pan-quinase assay"}, "HCT-116 [7]": {"test_system": "HCT-116", "experiment": "Induction of apoptosis in p53 knockout human HCT116 cells assessed as late apoptotic cells at 1 uM after 48 hrs by Annexin V-FITC/propidium iodide staining based assay (reference value: 2 +/- 1%)", "format": "functional"}, "[8]": {"molecular_target": "MAP kinase-interacting serine/threonine-protein kinase 1 (Homo sapiens, UniProt Q9BUB5)", "sequence (Q9BUB5 whole entry)": "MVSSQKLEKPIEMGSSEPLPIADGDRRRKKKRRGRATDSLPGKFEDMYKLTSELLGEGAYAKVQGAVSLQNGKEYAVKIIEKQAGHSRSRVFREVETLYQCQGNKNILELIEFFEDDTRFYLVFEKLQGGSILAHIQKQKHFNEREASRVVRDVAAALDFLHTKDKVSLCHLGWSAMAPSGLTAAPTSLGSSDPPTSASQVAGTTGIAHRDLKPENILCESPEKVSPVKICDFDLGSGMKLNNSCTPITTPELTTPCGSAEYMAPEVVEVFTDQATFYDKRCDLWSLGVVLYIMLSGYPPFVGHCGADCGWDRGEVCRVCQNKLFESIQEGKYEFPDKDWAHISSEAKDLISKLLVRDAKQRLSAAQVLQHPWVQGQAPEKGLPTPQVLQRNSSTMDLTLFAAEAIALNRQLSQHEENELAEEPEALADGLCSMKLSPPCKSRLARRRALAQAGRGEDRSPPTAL", "experiment": "Inhibition of human MKNK1 by flashplate based radiometric 33pan-quinase assay"}, "Mus musculus [9]": {"test_system": "Mus musculus", "experiment": "Toxicity in mouse P388 cells transplanted DBA2/BDF1 mouse assessed as mouse mortality at 50 mg/kg, ip dosed daily for 5 days", "format": "organism-based", "settings": "in vivo, 120 h"}, "K562 [10]": {"test_system": "K562", "experiment": "Binding affinity to P-gp in human K562 cells assessed as drug accumulation at 1 uM incubated for 1 to 24 hrs by flow cytometry", "format": "cell-based"}, "P388 [11]": {"test_system": "P388", "experiment": "Antitumor activity against mouse P388 cells transplanted in DBA2/BDF1 mouse assessed as mean life span at 5 mg/kg, ip dosed daily for 5 days relative to control", "format": "functional"}, "[12]": {"molecular_target": "DNA topoisomerase 2-alpha (Homo sapiens) (UniProt P11388)", "sequence (P11388 whole entry)": "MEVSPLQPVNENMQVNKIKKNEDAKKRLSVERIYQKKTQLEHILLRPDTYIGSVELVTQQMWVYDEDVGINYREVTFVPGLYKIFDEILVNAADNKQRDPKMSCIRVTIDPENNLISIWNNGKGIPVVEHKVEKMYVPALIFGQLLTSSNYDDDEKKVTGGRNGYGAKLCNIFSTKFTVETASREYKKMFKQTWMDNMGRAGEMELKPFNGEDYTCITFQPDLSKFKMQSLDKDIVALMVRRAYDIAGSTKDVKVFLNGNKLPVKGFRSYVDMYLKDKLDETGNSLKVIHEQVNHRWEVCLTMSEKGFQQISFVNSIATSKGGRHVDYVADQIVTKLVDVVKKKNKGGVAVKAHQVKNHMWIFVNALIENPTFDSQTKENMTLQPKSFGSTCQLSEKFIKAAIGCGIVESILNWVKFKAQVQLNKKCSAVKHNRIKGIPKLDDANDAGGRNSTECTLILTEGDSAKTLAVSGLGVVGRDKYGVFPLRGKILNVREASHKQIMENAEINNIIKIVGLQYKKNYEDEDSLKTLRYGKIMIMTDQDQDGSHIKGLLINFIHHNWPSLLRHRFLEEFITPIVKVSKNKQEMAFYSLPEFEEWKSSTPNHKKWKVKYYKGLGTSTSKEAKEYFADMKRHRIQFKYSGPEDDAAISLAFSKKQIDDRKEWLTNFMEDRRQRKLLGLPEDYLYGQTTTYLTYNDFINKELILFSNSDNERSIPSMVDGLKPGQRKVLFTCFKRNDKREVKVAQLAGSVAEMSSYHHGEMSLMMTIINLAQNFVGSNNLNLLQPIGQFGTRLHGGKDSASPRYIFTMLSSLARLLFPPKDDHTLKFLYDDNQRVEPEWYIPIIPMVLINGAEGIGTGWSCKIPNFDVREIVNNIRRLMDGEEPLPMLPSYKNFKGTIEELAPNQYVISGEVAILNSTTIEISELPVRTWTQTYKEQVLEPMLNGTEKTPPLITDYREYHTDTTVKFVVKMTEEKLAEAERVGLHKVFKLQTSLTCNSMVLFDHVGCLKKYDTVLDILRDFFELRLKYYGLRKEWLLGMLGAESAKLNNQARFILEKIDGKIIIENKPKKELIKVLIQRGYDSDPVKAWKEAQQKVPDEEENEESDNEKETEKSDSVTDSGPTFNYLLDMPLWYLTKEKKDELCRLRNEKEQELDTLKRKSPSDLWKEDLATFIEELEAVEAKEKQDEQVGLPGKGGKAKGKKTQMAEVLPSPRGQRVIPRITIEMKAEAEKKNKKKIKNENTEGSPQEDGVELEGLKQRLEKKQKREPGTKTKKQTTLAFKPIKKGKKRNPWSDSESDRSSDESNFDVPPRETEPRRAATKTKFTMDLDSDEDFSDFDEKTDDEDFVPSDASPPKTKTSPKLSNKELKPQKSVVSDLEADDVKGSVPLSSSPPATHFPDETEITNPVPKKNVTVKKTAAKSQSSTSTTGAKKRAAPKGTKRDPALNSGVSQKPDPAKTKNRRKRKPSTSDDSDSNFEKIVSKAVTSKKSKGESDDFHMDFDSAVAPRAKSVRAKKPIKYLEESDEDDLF", "experiment": "Inhibition of human topoisomerase 2-alpha assessed as attenuation of enzyme-mediated relaxation of supercoiled pBR322 DNA at 40 uM after 30 mins by agarose gel electrophoresis"}, "P388 [13]": {"test_system": "P388", "experiment": "Antitumor activity against mouse P388 cells transplanted in DBA2/BDF1 mouse assessed as mean life span at 20 mg/kg, ip dosed daily for 5 days relative to control", "format": "functional"}, "Aurora kinase B": {"molecular_target": "Aurora kinase B (Homo sapiens, UniProt Q96GD4)", "sequence (Q96GD4 whole entry)": "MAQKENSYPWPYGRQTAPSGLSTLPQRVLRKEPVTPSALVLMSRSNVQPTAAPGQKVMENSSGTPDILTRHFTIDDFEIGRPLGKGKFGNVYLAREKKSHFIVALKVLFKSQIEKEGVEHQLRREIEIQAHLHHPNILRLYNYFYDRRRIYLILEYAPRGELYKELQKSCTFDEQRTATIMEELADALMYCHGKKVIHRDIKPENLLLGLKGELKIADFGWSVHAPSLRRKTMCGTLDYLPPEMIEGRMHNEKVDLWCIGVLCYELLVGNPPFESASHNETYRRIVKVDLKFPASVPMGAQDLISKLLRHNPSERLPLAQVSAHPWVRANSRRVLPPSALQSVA", "experiment": "Inhibition of full length human N-terminal GST-HIS6-tagged Aurora B expressed in sf9 cells by flashplate based radiometric 33pan-quinase assay"}, "P388 [14]": {"test_system": "P388", "experiment": "Antitumor activity against mouse P388 cells transplanted in DBA2/BDF1 mouse assessed as mean life span at 40 mg/kg, ip dosed daily for 5 days relative to control", "format": "functional"}, "Mus musculus [15]": {"test_system": "Mus musculus", "experiment": "Toxicity in DBA2/BDF1 mouse transplanted with mouse P388 cells at 5 to 40 mg/kg, ip dosed daily for 5 days", "format": "organism-based", "settings": "in vivo, 120 h"}, "P388 [16]": {"test_system": "P388", "experiment": "Antitumor activity against mouse P388 cells transplanted in DBA2/BDF1 mouse assessed as mean life span at 5 mg/kg, ip dosed daily for 5 days (reference value: 9.6 +/- 0.5 day)", "format": "functional"}, "P388 [17]": {"test_system": "P388", "experiment": "Antitumor activity against mouse P388 cells transplanted in DBA2/BDF1 mouse assessed as mean life span at 10 mg/kg, ip dosed daily for 5 days relative to control", "format": "functional"}, "[18]": {"molecular_target": "T1, DNA topoisomerase 1 (Homo sapiens) (UniProt P11387)", "T1 sequence (whole entry)": "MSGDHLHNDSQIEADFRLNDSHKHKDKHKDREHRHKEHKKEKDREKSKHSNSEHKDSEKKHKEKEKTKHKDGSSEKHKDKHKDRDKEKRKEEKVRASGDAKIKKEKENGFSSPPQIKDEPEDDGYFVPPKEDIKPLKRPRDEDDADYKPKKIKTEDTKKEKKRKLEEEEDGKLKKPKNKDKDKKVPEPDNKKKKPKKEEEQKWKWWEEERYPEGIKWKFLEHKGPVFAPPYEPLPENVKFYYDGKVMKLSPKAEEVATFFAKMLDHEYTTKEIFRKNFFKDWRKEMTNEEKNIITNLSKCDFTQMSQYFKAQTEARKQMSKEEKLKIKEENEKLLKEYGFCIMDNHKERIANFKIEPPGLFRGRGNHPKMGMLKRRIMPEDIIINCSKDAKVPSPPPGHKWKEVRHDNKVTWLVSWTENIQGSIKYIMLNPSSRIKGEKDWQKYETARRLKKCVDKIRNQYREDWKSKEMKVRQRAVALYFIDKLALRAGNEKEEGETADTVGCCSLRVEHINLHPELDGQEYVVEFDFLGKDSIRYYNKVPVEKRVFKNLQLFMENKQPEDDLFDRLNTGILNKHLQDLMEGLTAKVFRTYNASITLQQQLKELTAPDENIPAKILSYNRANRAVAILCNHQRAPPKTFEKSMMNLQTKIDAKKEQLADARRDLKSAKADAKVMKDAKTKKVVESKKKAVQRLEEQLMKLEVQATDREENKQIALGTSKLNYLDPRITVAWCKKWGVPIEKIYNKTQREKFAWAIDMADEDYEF", "experiment": "Poisoning activity at topoisomerase 1 (unknown origin) using 3'-[32P]dGTP labelled 117bp oligonucleotide assessed as induction of DNA cleavage incubated for 20 mins by SDS-PAGE analysis"}, "HCT-116 [19]": {"test_system": "HCT-116", "experiment": "Induction of apoptosis in p53 knockout human HCT116 cells assessed as necrotic cells at 1 uM after 48 hrs by Annexin V-FITC/propidium iodide staining based assay (reference value: 2 +/- 1%)", "format": "functional"}, "Calf thymus DNA [20]": {"test_system": "Calf thymus DNA", "experiment": "Binding affinity to calf thymus DNA assessed as decrease in extinction of absorption maxima at 5 uM by spectrophotometric analysis", "format": "nucleic-acid assay", "parameters": "scale not given: the % may be the effect or the level left", "settings": "Bos taurus"}, "HCT-116 [21]": {"test_system": "HCT-116", "experiment": "Induction of apoptosis in p53 knockout human HCT116 cells assessed as necrotic cells at 1 uM after 24 hrs by Annexin V-FITC/propidium iodide staining based assay (reference value: 2 +/- 1%)", "format": "functional"}, "HCT-116 [22]": {"test_system": "HCT-116", "experiment": "Induction of apoptosis in human HCT116 cells assessed as late apoptotic cells at 1 uM after 24 hrs by Annexin V-FITC/propidium iodide staining based assay (reference value: 1 +/- 1%)", "format": "functional"}, "HeLa": {"test_system": "HeLa", "experiment": "Antiproliferative activity against human HeLa cells after 72 hrs by MTT assay", "format": "functional, cell-based"}, "K562 [23]": {"test_system": "K562", "experiment": "cells", "settings": "Homo sapiens, K562, 72 h", "description": "Antiproliferative activity against human K562 cells after 72 hrs by MTT assay"}, "L1210": {"test_system": "L1210", "experiment": "cells", "settings": "Mus musculus, L1210, 48 h", "description": "Antiproliferative activity against mouse L1210 cells after 48 hrs by MTT assay"}, "Calf thymus DNA [24]": {"test_system": "Calf thymus DNA", "experiment": "Binding affinity to calf thymus DNA assessed as dissociation constant by Scatchard plot analysis", "format": "nucleic-acid assay, Bos taurus"}, "cells": {"experiment": "cells", "settings": "Homo sapiens, HCT-116, 72 h", "description": "Antiproliferative activity against human HCT116 cells after 72 hrs by MTT assay"}}, "note": "pIC50, pKd: −log10 of the molar value. Calls of active or inactive are those of the source. No cut-off for these calls is given here."}
{"smiles": "CS(=O)(=O)O.Cc1oc2c(O)c3c(c(O)c2c1C(=O)N1CC[C@H](N)C1)C(=O)c1ccccc1C3=O", "values": [{"measurement": "pIC50", "setting": "[1]", "value": "> 5.30"}, {"measurement": "pIC50", "setting": "Aurora kinase C", "value": "> 5.30"}, {"measurement": "Activity", "setting": "P388 [2]", "value": 20.8, "unit": "days"}, {"measurement": "Activity", "setting": "[3]", "value": "> 70", "unit": "%"}, {"measurement": "pIC50", "setting": "[4]", "value": "> 5.30"}, {"measurement": "pIC50", "setting": "[5]", "value": "> 5.30"}, {"measurement": "pIC50", "setting": "[6]", "value": "> 5.30"}, {"measurement": "Activity", "setting": "HCT-116 [7]", "value": 14, "unit": "%"}, {"measurement": "pIC50", "setting": "[8]", "value": "> 5.30"}, {"measurement": "Activity", "setting": "Mus musculus [9]", "value": "Toxic"}, {"measurement": "Activity", "setting": "K562 [10]", "value": "inactive"}, {"measurement": "Activity", "setting": "P388 [11]", "value": 140, "unit": "%"}, {"measurement": "Activity", "setting": "[12]", "value": "Active"}, {"measurement": "Activity", "setting": "P388 [13]", "value": 222, "unit": "%"}, {"measurement": "pIC50", "setting": "Aurora kinase B", "value": "> 5.30"}, {"measurement": "Activity", "setting": "P388 [14]", "value": 262, "unit": "%"}, {"measurement": "Activity", "setting": "Mus musculus [15]", "value": "Non-toxic"}, {"measurement": "Activity", "setting": "P388 [16]", "value": 13.4, "unit": "days"}, {"measurement": "Activity", "setting": "P388 [17]", "value": 170, "unit": "%"}, {"measurement": "Activity", "setting": "[18]", "value": "inactive"}, {"measurement": "Activity", "setting": "HCT-116 [19]", "value": 33, "unit": "%"}, {"measurement": "Activity", "setting": "Calf thymus DNA [20]", "value": 36, "unit": "%"}, {"measurement": "Activity", "setting": "HCT-116 [21]", "value": 11, "unit": "%"}, {"measurement": "Activity", "setting": "HCT-116 [22]", "value": 12, "unit": "%"}]}
{"smiles": "CS(=O)(=O)O.Cc1oc2c(O)c3c(c(O)c2c1C(=O)N1CC[C@@H](N)C1)C(=O)c1ccccc1C3=O", "values": [{"measurement": "Activity", "setting": "[3]", "value": "> 70", "unit": "%"}, {"measurement": "pIC50", "setting": "HeLa", "value": 5.68}, {"measurement": "Activity", "setting": "HCT-116 [7]", "value": "Active"}, {"measurement": "Activity", "setting": "K562 [10]", "value": "inactive"}, {"measurement": "pIC50", "setting": "K562 [23]", "value": 5.96}, {"measurement": "pIC50", "setting": "L1210", "value": 5.72}, {"measurement": "Activity", "setting": "[12]", "value": "Active"}, {"measurement": "pKd", "setting": "Calf thymus DNA [24]", "value": 5.70}, {"measurement": "Activity", "setting": "[18]", "value": "inactive"}, {"measurement": "Activity", "setting": "HCT-116 [19]", "value": "Active"}, {"measurement": "Activity", "setting": "Calf thymus DNA [20]", "value": 36, "unit": "%"}, {"measurement": "Activity", "setting": "HCT-116 [21]", "value": "Active"}, {"measurement": "Activity", "setting": "HCT-116 [22]", "value": "Active"}, {"measurement": "pIC50", "setting": "cells", "value": 5.92}]}
